In US20240245696A1, “INHIBITORS OF DNA PK AND USES THEREOF” (BioVentures, LLC, priority 2017, published 2024):
Entries after “also recorded” stand apart in the source; their conditions may differ.

Assays:
Type in all cases: cell-based, human
IL-2 = assay: Secreted IL-2 ELISA, Jurkat cells stimulated with anti-CD28/CD3 dynabeads; settings: anti-CD28/CD3 dynabeads 1:1 ratio, 24 hours
Procedure: Detection of secreted IL-2: Secreted IL-2 was detected by Human IL-2 ELISA Kit from Thermo Scientific (Waltham, MA). The manufacturer's protocol was followed. Prior to harvesting, cells were treated with PHA (50 ng/ml) and PMA (1 μg/mL) for 24 hours with or without the NU7441 inhibitor. Jurkat cells stimulated with the anti-CD28/CD3 dynabeads were done so according to the manufacturer's protocol at a 1:1 ratio for 24 hours prior to harvesting. After stimulation, supernatant samples of Jurkat cells or PBMCs (2 million cells/mL) were collected and diluted 10 times before the assay. IL-2 standards and samples (50 μL) and Biotinylated antibody reagents (50 μL) were added to each well and the plate was incubated for 3 hours at room temperature. The plate was washed 3 times and 100 μL of Streptavidin-HRP solution was added. After 30 minutes of incubation at room temperature, the plate was washed 3 times. TMB substrate (100 μL) was added and incubated for 30 minutes in the dark at room temperature. Stop solution was added and the absorbance of each well was read at 450 nm using the plate reader.

Ca^2+ = assay: Calcium ion measurement in Jurkat cell lysates; settings: Jurkat cell lysates following activation with PMA+PHA
Procedure: Measurements of calcium ions: Intracellular concentration of calcium ions was measured by Calcium Detection Assay Kit from Abcam (Cambridge, MA). The manufacturer's protocols were followed. Briefly, Jurkat cells (2 million cells/mL) were lysed using cold PBS with 0.1% NP-40. The cell lysates were diluted 10 times before use. After following the assay protocol, the absorbance of each sample was read at 575 nm using the plate reader.

mTOR = mTOR (phospho-ser2448) ELISA and western blot in activated Jurkat cells
Procedure: Western blot analysis: Nuclear extract lysates were separated on 3-8% Tris-Acetate gels (Invitrogen). Total cell lysates were separated on 4-20% Tris-Glycine gels (Bio-Rad). Gels were transferred onto PVDF membrane (Millipore) for 2 hours in the cold room at 100V. Immunoblotting was performed using following antibodies: pDNA-PKcs at S2056 (ab18192, Abcam), DNAPK (ab53701, Abcam), pNFAT2 at S237 (ab183023, Abcam), CABIN1 (12660S, Cell signaling), GAPDH (MAB374, Millipore), and Lamin B1 (ab16048, Abcam). HRP-conjugated secondary antibody anti-Rabbit and anti-Mouse (7074S and 7076S, Cell Signaling) was used.
Detection of calcineurin and mTOR activities: Calcineurin phosphatase activity was detected by Calcineurin Cellular Activity Assay Kit from Millipore (Billerica, MA) and mTOR signaling was detected by Calcium Detection Kit from Abcam (Cambridge, MA). The manufacturer's protocols were followed. Briefly, Jurkat cells (2 million cells/mL) were lysed using lysis buffer. For calcineurin activity, the cell lysates were desalted by gel filtration to remove free phosphates before the assay and were subjected to calcineurin activity assay. The absorbance of each sample was read at 620 nm using the plate reader. […] The absorbance of each sample was read at 450 nm using the plate reader.

calcineurin = assay: Calcineurin Cellular Activity Assay in Jurkat cell lysates; settings: Jurkat activated with PMA+PHA, NU7441 2.5 µM
Source text: Detection of calcineurin and mTOR activities: Calcineurin phosphatase activity was detected by Calcineurin Cellular Activity Assay Kit from Millipore (Billerica, MA) and mTOR signaling was detected by Calcium Detection Kit from Abcam (Cambridge, MA). The manufacturer's protocols were followed. Briefly, Jurkat cells (2 million cells/mL) were lysed using lysis buffer. For calcineurin activity, the cell lysates were desalted by gel filtration to remove free phosphates before the assay and were subjected to calcineurin activity assay. The absorbance of each sample was read at 620 nm using the plate reader. For mTOR ELISA assay, the cell lysates were added to each well and antibody against phosphorylated mTOR at serine 2448 was used to detect the activity of mTOR signaling. The absorbance of each sample was read at 450 nm using the plate reader.

PD-1 = assay: qPCR of PD-1 expression in stimulated Jurkat cells; settings: PHA+PMA stimulation
Procedure: Evaluation of PD-1 and IL-2 expression: The effect of NU7441 on the expression of PD-1, a protein with immunosuppressant function, and IL-2 was examined in Jurkat cells following stimulation with PHA+PMA and treatment with the inhibitor NU7441. qPCR analysis was performed using primers specific for PD1 and IL-2 sequences.

NFAT = assay: Western blot of phosphorylated NFAT (s237) in activated Jurkat cells; settings: Jurkat activated with PMA+PHA
Procedure: Cell Culture: Human peripheral blood mononuclear cells (PBMC,) and Jurkat cells were purchased from ATCC (PCS-800-011, Manassas, VA). Cells were maintained at 37° C. in a humidified atmosphere composed of 5% CO2. Jurkat cells were cultured in RPMI 1640 medium which was supplemented with 10% FCS and human PBMC was cultured in RPMI 1640 medium which was supplemented with 10% FCS and pen/strep. Both Jurkat cells and PBMC were stimulated with PHA (50 ng/mL) and PMA (1 μg/mL) for 24 hours prior to harvesting for IL-2 detection or 6 hours prior for western blot analysis. The NU7441 DNA-PKcs inhibitor was added at varying concentrations at the time of stimulation.
Cell lysis and nuclear extract: Cells were washed with cold PBS twice and centrifuged at 5000 rpm for 5 minutes. For the nuclear extract, pellets were suspended with 800 μL of 10 mN HEPES lysis buffer (10 mM HEPES at pH 7.9, 10 mM KCl, 1 mM DTT, and 1× protease and phosphatase inhibitor) and incubated on ice for 15 minutes. 50 μL of NP-40 (10% in water) was added and the pellets were mixed for 10 seconds. Lysates were centrifuged for 5 minutes at 4° C. at 13,000 rpm. […]

Question: With `O=c1cc(N2CCOCC2)oc2c(-c3cccc4c3sc3ccccc34)cccc12` [NU7441] as the compound, how does the IL-2 production (IL-2) read?
Answer: significantly blocked IL-2 production; also recorded: inhibited

Question: What about the “concentration of Ca^2+ ions” value (Ca^2+) of the same compound?
Answer: no change; also recorded: not affected

Question: And the “mTOR activation (phosphorylated ser2448)” value (mTOR)?
Answer: did not alter mTOR activation; also recorded: does not alter mTOR activation

Question: And the calcineurin phosphatase activity (calcineurin)?
Answer: significantly inhibited; also recorded: significant reduction in calcineurin activity

Question: What about the “expression level of PD-1” value (PD-1) of the same compound?
Answer: did not alter

Question: And the “NFAT phosphorylation at s237” value (NFAT)?
Answer: remained phosphorylated; also recorded: inhibited the dephosphorylation of NFAT
